# Values of other authors as cited in article PMC8288134, “Synthesis, potential antitumor activity, cell cycle analysis, and multitarget mechanisms of novel hydrazones incorporating a 4-methylsulfonylbenzene scaffold: a molecular docking study” (Journal of Enzyme Inhibition and Medicinal Chemistry, 2021).
# Key:
# M14 = system: M14; parameters: method as in https://dtp.cancer.gov/dtpstandard/dwindex/index.jsp; details: reference drugs, ref https://dtp.cancer.gov/dtpstandard/dwindex/index.jsp; cited from earlier work
# CAKI-1 = system: CAKI-1; parameters: method as in https://dtp.cancer.gov/dtpstandard/dwindex/index.jsp; details: reference drugs, ref https://dtp.cancer.gov/dtpstandard/dwindex/index.jsp; cited from earlier work
# SF-539 = system: SF-539; parameters: method as in https://dtp.cancer.gov/dtpstandard/dwindex/index.jsp; details: reference drugs, ref https://dtp.cancer.gov/dtpstandard/dwindex/index.jsp; cited from earlier work
# [1] = system: leukaemia tumour cell lines; details: cited from earlier work; for GI50: read-out: GI50 (subpanel average), reference drugs, ref https://dtp.cancer.gov/dtpstandard/dwindex/index.jsp; for CC50: read-out: LC50 (subpanel average), reference drugs, ref https://dtp.cancer.gov/dtpstandard/dwindex/index.jsp; for TGI (subpanel average): reference drugs, ref https://dtp.cancer.gov/dtpstandard/dwindex/index.jsp
# OVCAR-8 = system: OVCAR-8; parameters: method as in https://dtp.cancer.gov/dtpstandard/dwindex/index.jsp; details: reference drugs, ref https://dtp.cancer.gov/dtpstandard/dwindex/index.jsp; cited from earlier work
# SF-295 = system: SF-295; parameters: method as in https://dtp.cancer.gov/dtpstandard/dwindex/index.jsp; details: reference drugs, ref https://dtp.cancer.gov/dtpstandard/dwindex/index.jsp; cited from earlier work
# PRMI-8226 = system: PRMI-8226; parameters: method as in https://dtp.cancer.gov/dtpstandard/dwindex/index.jsp; details: reference drugs, ref https://dtp.cancer.gov/dtpstandard/dwindex/index.jsp; cited from earlier work
# UACC-257 = system: UACC-257; parameters: method as in https://dtp.cancer.gov/dtpstandard/dwindex/index.jsp; details: reference drugs, ref https://dtp.cancer.gov/dtpstandard/dwindex/index.jsp; cited from earlier work
# NCI-H23 = system: NCI-H23; parameters: method as in https://dtp.cancer.gov/dtpstandard/dwindex/index.jsp; details: reference drugs, ref https://dtp.cancer.gov/dtpstandard/dwindex/index.jsp; cited from earlier work
# MDA-MB-231/ATCC = system: MDA-MB-231/ATCC; parameters: method as in https://dtp.cancer.gov/dtpstandard/dwindex/index.jsp; details: reference drugs, ref https://dtp.cancer.gov/dtpstandard/dwindex/index.jsp; cited from earlier work
# SNB-19 = system: SNB-19; parameters: method as in https://dtp.cancer.gov/dtpstandard/dwindex/index.jsp; details: reference drugs, ref https://dtp.cancer.gov/dtpstandard/dwindex/index.jsp; cited from earlier work
# U251 = system: U251; parameters: method as in https://dtp.cancer.gov/dtpstandard/dwindex/index.jsp; details: reference drugs, ref https://dtp.cancer.gov/dtpstandard/dwindex/index.jsp; cited from earlier work
# A498 = system: A498; parameters: method as in https://dtp.cancer.gov/dtpstandard/dwindex/index.jsp; details: reference drugs, ref https://dtp.cancer.gov/dtpstandard/dwindex/index.jsp; cited from earlier work
# NCI-H322M = system: NCI-H322M; parameters: method as in https://dtp.cancer.gov/dtpstandard/dwindex/index.jsp; details: reference drugs, ref https://dtp.cancer.gov/dtpstandard/dwindex/index.jsp; cited from earlier work
# OVCAR-4 = system: OVCAR-4; parameters: method as in https://dtp.cancer.gov/dtpstandard/dwindex/index.jsp; details: reference drugs, ref https://dtp.cancer.gov/dtpstandard/dwindex/index.jsp; cited from earlier work
# CCRF-CEM = system: CCRF-CEM; parameters: method as in https://dtp.cancer.gov/dtpstandard/dwindex/index.jsp; details: reference drugs, ref https://dtp.cancer.gov/dtpstandard/dwindex/index.jsp; cited from earlier work
# MOLT-4 = system: MOLT-4; parameters: method as in https://dtp.cancer.gov/dtpstandard/dwindex/index.jsp; details: reference drugs, ref https://dtp.cancer.gov/dtpstandard/dwindex/index.jsp; cited from earlier work
SMILES,GI50 (M14),GI50 (CAKI-1),GI50 (SF-539),GI50 [1],CC50 [1],TGI (subpanel average) [1],GI50 (OVCAR-8),GI50 (SF-295),GI50 (PRMI-8226),GI50 (UACC-257),GI50 (NCI-H23),GI50 (MDA-MB-231/ATCC),GI50 (SNB-19),GI50 (U251),GI50 (A498),GI50 (NCI-H322M),GI50 (OVCAR-4),GI50 (CCRF-CEM),GI50 (MOLT-4)
"Cc1ccc(-c2cc(C(F)(F)F)nn2-c2ccc(S(N)(=O)=O)cc2)cc1 [Celecoxib, celecoxib]",63.1 µM,19.9 µM,19.9 µM,12.3 µM,67.1 µM,29.27 µM,19.9 µM,15.8 µM,3.98 µM,19.9 µM,15.8 µM,15.8 µM,19.9 µM,15.8 µM,15.8 µM,19.9 µM,12.6 µM,12.6 µM,15.8 µM
"C#Cc1cccc(Nc2ncnc3cc(OCCOC)c(OCCOC)cc23)c1 [Erlotinib, erlotinib]",6.31 µM,0.199 µM,19.9 µM,27.9 µM,> 100 µM,96.57 µM,7.94 µM,15.8 µM,25.1 µM,100 µM,31.6 µM,6.31 µM,12.6 µM,25.1 µM,2.51 µM,0.1 µM,10 µM,50.1 µM,25.1 µM
